From ChEMBL document CHEMBL1139666, “Discovery and synthesis of a novel series of quinoline-based thrombin receptor (PAR-1) antagonists” (Bioorg Med Chem Lett, 2006)
The source made the active and inactive calls. No cut-off for these calls is given here.

tested on: not listed separately; assay: AUC(0-4h) in cynomolgus monkey at 10 mg/kg; assay type: ADME, organism-based, Macaca fascicularis; design: time < 5 hr, dose 10 mg/kg; details: plasma

Point of comparison: `C[C@H]1OC(=O)[C@@H]2C[C@@H]3CCCC[C@H]3[C@H](/C=C/c3ccc4cc(OCC(=O)O)ccc4n3)[C@H]12`, AUC(0-t) at 5 h 0.017 µg·h/mL. Against it:
- C[C@H]1OC(=O)[C@@H]2C[C@@H]3CCCC[C@H]3[C@H](/C=C/c3ccc4cc(O)ccc4n3)[C@H]12 — 49-fold higher, 0.826 µg·h/mL

biological target: T1, Proteinase-activated receptor 1 (Homo sapiens, UniProt P25116); assay: Displacement of [3H]haTRAP from PAR1 in human platelet membrane; assay type: cell membranes; details: not given
T1 sequence (P25116 whole entry): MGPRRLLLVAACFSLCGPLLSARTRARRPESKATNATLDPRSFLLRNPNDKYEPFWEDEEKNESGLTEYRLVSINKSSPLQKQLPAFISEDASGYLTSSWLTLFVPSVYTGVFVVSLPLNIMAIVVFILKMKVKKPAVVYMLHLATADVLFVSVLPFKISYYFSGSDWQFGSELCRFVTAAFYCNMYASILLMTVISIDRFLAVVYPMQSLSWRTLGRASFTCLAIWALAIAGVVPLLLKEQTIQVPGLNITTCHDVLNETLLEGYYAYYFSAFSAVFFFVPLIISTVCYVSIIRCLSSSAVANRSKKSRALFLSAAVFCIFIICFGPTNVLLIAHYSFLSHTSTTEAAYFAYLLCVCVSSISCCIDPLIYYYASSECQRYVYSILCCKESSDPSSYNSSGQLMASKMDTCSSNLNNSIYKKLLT

Point of comparison: `C[C@H]1OC(=O)[C@@H]2C[C@@H]3CCCC[C@H]3[C@H](/C=C/c3ccc4cc(OC(C)(C)C(N)=O)ccc4n3)[C@H]12`, IC50 0.8 µM. Against it:
- C[C@H]1OC(=O)[C@@H]2C[C@@H]3CCCC[C@H]3[C@H](/C=C/c3ccc4cc(OCc5ccccc5)ccc4n3)[C@H]12 — 1.6-fold higher, 1.25 µM
- C[C@H]1OC(=O)[C@@H]2C[C@@H]3CCCC[C@H]3[C@H](/C=C/c3ccc4cc(OC(C)(C)C(=O)Nc5ccccc5)ccc4n3)[C@H]12 — 1.6-fold lower, 0.5 µM
- COc1cccc2ccc(/C=C/[C@H]3[C@@H]4CCCC[C@H]4C[C@H]4C(=O)O[C@H](C)[C@@H]34)nc12 (racemic) — within 1.5-fold, 0.7 µM
- C[C@H]1OC(=O)[C@@H]2C[C@@H]3CCCC[C@H]3[C@H](/C=C/c3ccc4cc(NC(=O)c5ccccc5)ccc4n3)[C@H]12 — 3.7-fold lower, 0.219 µM
- C[C@H]1OC(=O)[C@@H]2C[C@@H]3CCCC[C@H]3[C@H](/C=C/c3ccc4cc(F)ccc4n3)[C@H]12 (racemic) — within 1.5-fold, 0.73 µM
- CCOc1ccc2nc(/C=C/[C@H]3[C@@H]4CCCC[C@H]4C[C@H]4C(=O)O[C@H](C)[C@@H]34)ccc2c1 (racemic) — 6.4-fold lower, 0.125 µM
- C[C@H]1OC(=O)[C@@H]2C[C@@H]3CCCC[C@H]3[C@H](/C=C/c3ccc4cc(OCC(=O)NC5CC5)ccc4n3)[C@H]12 — 2.8-fold lower, 0.29 µM
- C[C@H]1OC(=O)[C@@H]2C[C@@H]3CCCC[C@H]3[C@H](/C=C/c3ccc4cc(OCCNC(=O)OC(C)(C)C)ccc4n3)[C@H]12 (racemic) — 2.9-fold lower, 0.275 µM
- Cc1ccc2ccc(/C=C/[C@H]3[C@@H]4CCCC[C@H]4C[C@H]4C(=O)O[C@H](C)[C@@H]34)nc2c1 (racemic) — 5.3-fold lower, 0.15 µM
- C[C@H]1OC(=O)[C@@H]2C[C@@H]3CCCC[C@H]3[C@H](/C=C/c3ccc4cc(Cl)ccc4n3)[C@H]12 (racemic) — 5.2-fold lower, 0.155 µM
- CCCC(=O)Nc1ccc2nc(/C=C/[C@H]3[C@@H]4CCCC[C@H]4C[C@H]4C(=O)O[C@H](C)[C@@H]34)ccc2c1 — 29-fold lower, 0.028 µM
- C[C@H]1OC(=O)[C@@H]2C[C@@H]3CCCC[C@H]3[C@H](/C=C/c3ccc4cc(OCC(N)=O)ccc4n3)[C@H]12 — within 1.5-fold, 1 µM
- C[C@H]1OC(=O)[C@@H]2C[C@@H]3CCCC[C@H]3[C@H](/C=C/c3ccc4cc(O)ccc4n3)[C@H]12 — 130-fold lower, 0.0063 µM
- C[C@H]1OC(=O)[C@@H]2C[C@@H]3CCCC[C@H]3[C@H](/C=C/c3ccc4cc(OCC(=O)O)ccc4n3)[C@H]12 — 28-fold lower, 0.029 µM
- CC(=O)Nc1ccc2nc(/C=C/[C@H]3[C@@H]4CCCC[C@H]4C[C@H]4C(=O)O[C@H](C)[C@@H]34)ccc2c1 — 8-fold lower, 0.1 µM
- CCC(=O)Nc1ccc2nc(/C=C/[C@H]3[C@@H]4CCCC[C@H]4C[C@H]4C(=O)O[C@H](C)[C@@H]34)ccc2c1 — 12-fold lower, 0.068 µM
- COc1ccc2nc(/C=C/[C@H]3[C@@H]4CCCC[C@H]4C[C@H]4C(=O)O[C@H](C)[C@@H]34)ccc2c1Cl (racemic) — the same, 0.8 µM
- COc1ccc2nc(/C=C/[C@H]3[C@@H]4CCCC[C@H]4C[C@H]4C(=O)O[C@H](C)[C@@H]34)ccc2c1OC — 16-fold lower, 0.05 µM
- C[C@H]1OC(=O)[C@@H]2C[C@@H]3CCCC[C@H]3[C@H](/C=C/c3ccc4cc(NC(=O)C(C)(C)C)ccc4n3)[C@H]12 — 2.7-fold higher, 2.15 µM
- C[C@H]1OC(=O)[C@@H]2C[C@@H]3CCCC[C@H]3[C@H](/C=C/c3ccc4cc(-c5cccs5)ccc4n3)[C@H]12 — 2.7-fold lower, 0.3 µM
- C[C@H]1OC(=O)[C@@H]2C[C@@H]3CCCC[C@H]3[C@H](/C=C/c3ccc4cc(-c5ccsc5)ccc4n3)[C@H]12 — 16-fold lower, 0.05 µM
- Cc1cccc2ccc(/C=C/[C@H]3[C@@H]4CCCC[C@H]4C[C@H]4C(=O)O[C@H](C)[C@@H]34)nc12 (racemic) — 2.1-fold lower, 0.39 µM
- C[C@H]1OC(=O)[C@@H]2C[C@@H]3CCCC[C@H]3[C@H](/C=C/c3ccc4cc(OCC(=O)Nc5ccccc5)ccc4n3)[C@H]12 — 32-fold lower, 0.025 µM
- C[C@H]1OC(=O)[C@@H]2C[C@@H]3CCCC[C@H]3[C@H](/C=C/c3ccc4cc(N)ccc4n3)[C@H]12 — 27-fold lower, 0.03 µM
- C[C@H]1OC(=O)[C@@H]2C[C@@H]3CCCC[C@H]3[C@H](/C=C/c3ccc4cc(OCC(=O)N5CCOCC5)ccc4n3)[C@H]12 — 1.6-fold lower, 0.5 µM
- C[C@H]1OC(=O)[C@@H]2C[C@@H]3CCCC[C@H]3[C@H](/C=C/c3ccc4cc(-c5cccc(C(F)(F)F)c5)ccc4n3)[C@H]12 — 2.7-fold lower, 0.3 µM

biological target: T1, Proteinase-activated receptor 1; assay: Displacement of [3H]haTRAP from PAR1 in human platelet membrane at […]; assay type: cell membranes; details: not given

For `C[C@H]1OC(=O)[C@@H]2C[C@@H]3CCCC[C@H]3[C@H](/C=C/c3cc(OCc4ccccc4)c4ccccc4n3)[C@H]12` (racemic), the IC50 was “Not Active”.
For `COc1cc(/C=C/[C@H]2[C@@H]3CCCC[C@H]3C[C@H]3C(=O)O[C@H](C)[C@@H]23)nc2ccccc12` (racemic), the IC50 was “Not Active”.
In the case of `C[C@H]1OC(=O)[C@@H]2C[C@@H]3CCCC[C@H]3[C@H](/C=C/c3ccc4cc(OCCN)ccc4n3)[C@H]12` (racemic), the IC50 is reported as “Not Active”.
For `C[C@H]1OC(=O)[C@@H]2C[C@@H]3CCCC[C@H]3[C@H](/C=C/c3ccc4cc(OC(F)(F)F)ccc4n3)[C@H]12`, the IC50 was “Not Active”.

tested on: Cynomolgus monkey; assay: Inhibition of platelet aggregation in orally dosed cynomolgus monkey; assay type: functional, organism-based; details: Macaca fascicularis

In the case of `C[C@H]1OC(=O)[C@@H]2C[C@@H]3CCCC[C@H]3[C@H](/C=C/c3ccc4cc(OCC(=O)O)ccc4n3)[C@H]12`, the inhibition is reported as “inactive”.

tested on: Cynomolgus monkey; assay: Inhibition of platelet aggregation in cynomolgus monkey 2 hrs post dose iv; assay type: functional, organism-based; details: Macaca fascicularis

With `C[C@H]1OC(=O)[C@@H]2C[C@@H]3CCCC[C@H]3[C@H](/C=C/c3ccc4cc(OCC(=O)O)ccc4n3)[C@H]12` the inhibition was “Active”.
